# Assay results published in patent US11717557B2, “Use of PRG4 as an anti-inflammatory agent” (Lubris LLC, priority 2015, dated 2023).
# Residues, ends and D or L forms follow the SMILES beside them. *: point of attachment. Cbz = O=C(OCc1ccccc1)*
# What was measured:
# CD44 IgG1Fc [1] = target: T1, CD44 IgG1Fc (Homo sapiens, UniProt P16070); assay: Direct ELISA: binding of coated macromolecules to CD44-IgG1Fc versus IgG1Fc; details: wells coated at 400 μg/mL; CD44-IgG1Fc or IgG1Fc 1 μg/mL; p<0.001 where significant
# T1 construct: purchased R & D systems
# Description: High-binding microtiter plates (Corning, Sigma Aldrich, USA) were coated with rhPRG4 (Mr≅240 KDa), high molecular weight HA (HMW HA; Mr≈1,500 KDa) (R & D System, USA), medium molecular weight HA (MMW HA; Mr≈300 KDa) (R & D System) and vitronectin (Mr≅75 KDa) (Sigma Aldrich) at 400 μg/mL in PBS buffer (100 μL per well) overnight at 4° C. rhPRG4 is a full-length product produced by CHO-M cells (Lubris, Framingham, Mass., USA). Following washing with PBS+0.1% Tween 20, wells were blocked with 2% bovine serum albumin (BSA; 300 μL per well) for at least 2 hours at room temperature. CD44-IgG1Fc (R & D systems) or IgG1Fc (R & D systems), each at 1 μg/mL (100 μl per well), were added to the plate and incubated for 60 min at room temperature. Following washing with PBS+0.1% tween 20, anti-IgG1Fc-HRP (Sigma Aldrich) was added at 1:10,000 dilution (100 μL per well) and incubated for 60 min at room temp. Following washing with PBS+0.1% tween 20, the assay was developed using 1-step Turbo TMB ELISA reagent (ThermoScientific, USA) and absorbance was measured at 450 nm. The data represents an average of 4 independent assays, each with triplicate wells per group.
# CD44 IgG1Fc [2] = target: T1, CD44 IgG1Fc; assay: Competition between rhPRG4 and HA on binding to CD44, ELISA; details: rhPRG4 5 μg/mL
# Description: To evaluate the competition between rhPRG4 and either HMW HA or MMW HA on binding to CD44, microtiter plates were coated with either CD44 IgG1Fc or IgG1Fc at 1 μg/mL (100 μL per well) overnight at 4° C. Subsequently, wells were washed with PBS+0.1% tween 20 and wells were blocked using 2% BSA (300 μL per well) for at least 2 hours at room temperature. […] Following washing with PBS+0.1% tween 20, lubricin-specific monoclonal antibody (Mab 9G3) was added at 1:1,000 (100 μL per well) and incubated for 60 min at room temp. Following washing with PBS+0.1% tween 20, goat anti-mouse IgG-HRP (Thermo Scientific) at 1:1,000 dilution was added (100 μL per well) and incubated for 60 min at room temp. The assay was developed as described above. The absorbance values in the IgG1Fc wells were subtracted from the absorbance values in the CD44-IgG1Fc wells and the corrected absorbance values in the rhPRG4+HA groups were normalized to the absorbance values of the rhPRG4 group and data was expressed as percentage binding to CD44. The data represents an average of 4 independent assays, each with triplicate wells per group.
# [3] = tested on: Rheumatoid arthritis fibroblast-like synoviocytes (RA-FLS); assay: Cytokine-induced RA-FLS proliferation (MTS); type: cell-based; details: 48 hours, p<0.05
# Description: Rheumatoid arthritis fibroblast-like synoviocytes (RA-FLS; Cell Applications, USA) between 3rd and 6th passages were used to conduct these experiments. In sterile 96 well plates, RA-FLS (5,000 cells per well in 80 μL) were cultured in DMEM supplemented with 1% FBS and 1 mM pyruvate and stimulated with recombinant human interleukin-1 beta (IL-1β; R & D systems) at 20 ng/mL or tumor necrosis factor alpha (TNF-α; R & D systems) at 5 ng/mL for 48 hours at 37° C. in the absence or presence of rhPRG4 or HMW HA at a final concentration of 20, 40 or 80 μg/mL. The total volume in each well was 200 μL. Cell proliferation, an indication of inflammation, was determined using the CellTiter 96 AQueous one solution cell proliferation assay (MTS; Promega, USA) and the 490 nm absorbance was determined. Data is presented as the number of fold change in 490 nm absorbance compared to untreated control RA-FLS. The data represents the average of 3 independent experiments with at least triplicate wells per treatment. To evaluate the contribution of CD44 to the effect of rhPRG4 or HMW HA, RA-FLS were stimulated with IL-1β or TNF-α as described above. Treatment with rhPRG4 or HMW HA was conducted to a final concentration of 80 μg/mL in the absence or presence of IM7 (Abcam, USA), a CD44 neutralizing antibody that recognizes a conserved epitope across all CD44 isoforms (Samson et al., Exp Eye Res, 2014; 127C:14-19), at a final dilution of 1:200. The total volume in each well was 200 μl. Cell proliferation across the experimental groups was determined as described above and data is presented as the number of fold change in 490 nm absorbance compared to untreated control RA-FLS. The data represents the average of 3 independent experiments with at least triplicate wells per treatment.
# [4] = tested on: NFκB nuclear translocation in RA-FLS; assay: NFκB nuclear translocation after TNF-α stimulation of RA-FLS; type: cell-based; details: TNF-α 5 ng/mL; rhPRG4 200 μg/mL or MG 132 3 μM; 24 hours; p<0.001
# Description: RA-FLS (400,000 cells/well) were cultured and stimulated with TNF-α (5 ng/mL) and treated with rhPRG4 (200 μg/mL) or a commercially available NFκB translocation inhibitor MG 132 (3 μM; Tocris Bioscience) for 24 hours in serum free media. Cells were harvested and nuclear extraction was performed using a commercially available kit (Thermo scientific). Total protein was measured using a micro bicinchonic acid (BCA) kit (Thermo scientific) and 3 μg of nuclear extract of each experimental group were used. The p50 subunit of NFκB was detected in the nuclear extract using a commercially available NFκB DNA binding assay kit (Abcam). Data is presented as the number of fold change in NFκB nuclear levels compared to untreated control. To evaluate whether inhibition of NFκB translocation by rhPRG4 is CD44 dependent, the above experiment was repeated in the presence or absence of IM7 CD44 antibody (1:1,000 dilution). Data represents the average of 3 independent experiments with at least triplicate wells per treatment.
# CD44 = target: T2, CD44 (Homo sapiens, UniProt P16070); assay: CD44 binding of sialidase-A / O-glycosidase digested rhPRG4, direct ELISA; details: coating 30 μg/mL; digestion 16 hours at 37° C.
# T2 construct: purchased R & D systems
# Description: rhPRG4 was digested using sialidase A (Prozyme, USA), O-glycosidase (New England Biolabs, USA) or a combination of sialidase A and O-glycosidase for 16 hours at 37° C. In the sialidase A digestion, 12 μL of the enzyme (1 U/200 μL) was added to rhPRG4 in a total reaction volume of 180 μL and a rhPRG4 final concentration of 300 μg/mL. In the O-glycosidase digestion, 4.8 μL of the enzyme (40 million units/mL) was added to rhPRG4 in a total reaction volume of 180 μL and a rhPRG4 final concentration of 300 μg/mL under non-denaturing conditions. In the sialidase-A and O-glycosidase digestion, the enzymes were used in volumes identical to the ones stated above and incubated with rhPRG4 in a total reaction volume and final rhPRG4 concentration as stated above. The effect of sialidase-A and O-glycosidase digestions on rhPRG4 apparent molecular weight was determined by SDS-PAGE using 4-12% Bis-Tris gel (NuPage, life technologies, USA). A total of 20 μL of rhPRG4 or enzyme-digested rhPRG4 was run under reducing conditions ([…] for 60 min) followed by staining using Gelcode Blue Stain (Thermo Scientific, USA). Binding of enzymatically digested rhPRG4 to CD44 was compared to undigested rhPRG4 using the direct ELISA approach described above and using an rhPRG4 coating concentration of 30 μg/mL. Data represents the average of 4 independent experiments, each with triplicate wells per group.
# [5] = tested on: citrated whole human blood; assay: LPS challenge, inflammatory cytokines in whole blood (Biochip Array); type: cell-based; details: LPS 10 μg/mL, versus saline
# Excerpt: Lipopolysaccharides (LPS) are found in the outer membrane of Gram-negative bacteria and elicit strong immune inflammatory responses in animals. The effect of LPS challenge on the production of inflammatory cytokines was studied in citrated whole human blood using Biochip Array technology to profile the generation of various cytokines and the modulation of their production. The generation of IL2, IL4, IL6, IL8, IL10, VEGF, IFNg, TNFa, IL1a, IL1b, MCP1 and EGF was studied in citrated whole blood samples supplemented with saline (1-10 ratio) and LPS at 10 μg/mL in samples incubated for 60 minutes at 37° C. These mixtures were centrifuged and the supernatant plasma was analyzed for the […] inflammatory biomarkers using a high sensitivity cytokine array on a Randox Invesitigator Biochip reader. These studies were run in duplicate and tabulated in the form of a table and a figure. As shown in FIGS. 8A-B, supplementation of lipopolysaccharide in a 1:10 dilution in whole blood results in an increase in production of the inflammatory cytokines IL-4, IL-6, IL-8, IL-10, VEGF, TNF-α, IL1-β, and MCP-1 under the specified conditions. No changes in IL2, IFNg, and IL1b were noted.
molecule,measurement,setting,value
"vitronectin: vitronectin, Mr≅75 KDa (Sigma Aldrich), shares sequence homology with lubricin",450 nm absorbance in the CD44-IgG1Fc group versus the IgG1Fc group,CD44 IgG1Fc [1],no significant difference
hyaluronic acid [HMW HA],reduction of rhPRG4 binding to CD44 by an excess of HA,CD44 IgG1Fc [2],approximately 50%
same,effect of HA on rhPRG4's binding to CD44,"CD44 IgG1Fc [2]; HA at 0.05, 0.25, 1, p<0.05",significantly reduced
same,450 nm absorbance in the CD44-IgG1Fc group versus the IgG1Fc group,CD44 IgG1Fc [1],significantly higher
same,RA-FLS proliferation with IL-1β stimulation,"[3]; IL-1β 20 ng/mL, treatment 40 and 80 μg/mL",significantly suppressed
same,RA-FLS proliferation with TNF-α stimulation,"[3]; TNF-α 5 ng/mL, treatment 20, 40 and 80 μg/mL",did not result in suppressing
"CC(C)C[C@@H](C=O)NC(=O)[C@H](CC(C)C)NC(=O)[C@H](CC(C)C)NC(=O)OCc1ccccc1 [MG132, reference compound] (Cbz-Leu-Leu-Leu-aldehyde)",NFκB nuclear translocation compared to TNF-α-treated RA-FLS,[4],significantly reduced
O-glycosidase digested rhPRG4: rhPRG4 digested using O-glycosidase for 16 hours at 37° C.,percentage binding to CD44 compared to untreated control (undigested rhPRG4),CD44,significant increase
sialidase-A and O-glycosidase-digested rhPRG4: rhPRG4 digested using a combination of sialidase A and O-glycosidase,percentage binding to CD44 compared to untreated control (undigested rhPRG4),CD44,significantly higher
sialidase-A digested rhPRG4: rhPRG4 digested using sialidase A for 16 hours at 37° C.,percentage binding to CD44 compared to untreated control (undigested rhPRG4),CD44,significant increase
lipopolysaccharide,"production of IL-4, IL-6, IL-8, IL-10, VEGF, TNF-α, IL1-β and MCP-1","[5]; 1:10 dilution in whole blood, 60 minutes at 37° C.",increase
same,"IL2, IFNg and IL1b",[5]; 60 minutes at 37° C.,No changes
same,"percent changes in IL6, IL8, VEGF and TNFa",[5]; 60 minutes,pronounced increase
